Experimental findings from publication PMC6053381, “Novel 2-phenyloxypyrimidine derivative induces apoptosis and autophagy via inhibiting PI3K pathway and activating MAPK/ERK signaling in hepatocellular carcinoma cells” (Scientific Reports, 2018) are described below.

For assay [1], the target named is PDGFRα (Homo sapiens, UniProt P16234). Put plainly: PDGFR kinase assay, Caliper microfluidic mobility shift. It counts as biochemical. To be noted: compound at 1 µM; averages of two separate experiments. On the procedure: (§1) In vitro inhibitory activities of all compounds at 1 μM against PDGFRα and PDGFRβ were evaluated using Caliper microfluidic mobility shift technology. […] At the same concentration, only E5 inhibited greater than 50% of PDGFRβ activity (Fig. 2B).
PDGFRα, sequence (P16234 24-1089): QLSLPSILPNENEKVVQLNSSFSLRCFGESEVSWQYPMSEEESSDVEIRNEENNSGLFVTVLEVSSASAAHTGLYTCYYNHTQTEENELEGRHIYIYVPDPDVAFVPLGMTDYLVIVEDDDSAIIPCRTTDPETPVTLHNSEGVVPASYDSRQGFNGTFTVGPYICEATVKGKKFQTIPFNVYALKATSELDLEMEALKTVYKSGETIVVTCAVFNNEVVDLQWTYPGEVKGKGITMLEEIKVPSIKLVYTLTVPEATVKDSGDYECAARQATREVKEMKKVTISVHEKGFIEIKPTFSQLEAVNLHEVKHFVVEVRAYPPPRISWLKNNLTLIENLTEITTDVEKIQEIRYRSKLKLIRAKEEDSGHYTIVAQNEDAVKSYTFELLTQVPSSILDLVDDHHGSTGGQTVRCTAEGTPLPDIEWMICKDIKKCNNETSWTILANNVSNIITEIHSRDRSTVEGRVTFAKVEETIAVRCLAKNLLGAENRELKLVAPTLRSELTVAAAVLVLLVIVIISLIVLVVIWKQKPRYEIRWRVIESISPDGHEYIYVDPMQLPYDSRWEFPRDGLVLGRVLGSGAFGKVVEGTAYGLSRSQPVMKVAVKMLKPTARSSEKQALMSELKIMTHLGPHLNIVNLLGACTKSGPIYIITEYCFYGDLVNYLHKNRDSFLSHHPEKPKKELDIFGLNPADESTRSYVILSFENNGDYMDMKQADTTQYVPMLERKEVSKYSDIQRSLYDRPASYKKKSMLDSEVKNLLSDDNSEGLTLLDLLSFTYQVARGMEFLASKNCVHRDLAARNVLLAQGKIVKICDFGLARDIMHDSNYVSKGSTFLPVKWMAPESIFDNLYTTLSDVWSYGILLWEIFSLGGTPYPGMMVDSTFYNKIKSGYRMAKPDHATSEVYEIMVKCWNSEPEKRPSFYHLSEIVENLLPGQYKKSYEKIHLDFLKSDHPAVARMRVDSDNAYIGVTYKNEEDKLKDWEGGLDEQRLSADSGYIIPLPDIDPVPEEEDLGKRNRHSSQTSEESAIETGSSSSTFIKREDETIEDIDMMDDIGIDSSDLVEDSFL
(§2) PDGFR kinase activity was measured using Caliper microfluidic mobility shift technology. Briefly, 2 μL compound solution (25 μM) in 25% DMSO per well were added into the 384 well microtiter plates. Then, 10 μL per well of enzyme solution (100 mM HEPES, 10 mM MgCl2, Brij35 (30%) 100 μL, 1 mM DTT, 20 ng enzyme) was added. After a brief centrifugation at 1,000 rpm, the kinase reactions were started by addition of 38 μL per well of peptide/ATP-solution (40 μM ATP, 6.5 μM peptide 5′-FAM-KKKKEEIYFFF-NH2, Tris-HCl buffer, pH 7.0) incubated at 30 °C for 60 min and stopped by the addition of 20 μL 35 mM EDTA per well. The electrophoretic separation of the phosphorylated and non-phosphorylated peptides was then carried out on LabChip EZ Reader II (Caliper Life Sciences). All other kinase reactions were carried out as previously reported using the Kinase-Glo Plus or ADP-Glo assay. Kinase inhibition rates were calculated per manufacturer’s instructions.

The target in assay [2] is PDGFRβ (Homo sapiens, UniProt P09619). The description is as above. It counts as biochemical. To be noted: compound at 1 µM; averages of two separate experiments. On the procedure:
as §1, §2

Assay [3] concerns Hep3B. Put plainly: CellTiter-Glo luminescent cell viability assay. It counts as cell-based. The following applies: 120 h incubation, read-out: Anti-proliferative activity IC50 Hep3B. From the text: (§3) The in vitro antitumor activity of all compounds was screened against six HCC cell lines by CellTiter-Glo luminescent cell viability assay as described earlier. […] After a comprehensive assessment of PDGFR inhibition, cellular activity against HCC cells as well as potential druggability, E5 was chosen to investigate its kinase profiling, antitumor activity and molecular mechanism in the following study. […]
(§4) authenticated by using short tandem repeat (STR) matching analysis. No mycoplasma contamination was detected.
(§5) CellTiter-Glo luminescent cell viability assay
(§6) For experiments hepatocellular carcinoma cells were seeded at 4000 cells per well in 96-well plates. After overnight incubation, solution of compounds in DMSO at various concentrations were added to the cells and further incubated for 120 h. Cell viability was measured with the CellTiter-Glo Luminescent Cell Viability Assay (Promega) according to the manufacturer’s instructions. Luminescence was measured using an EnVision Multilabel Plate Reader (Perkin-Elmer). The cytotoxicity of the compounds was expressed as the percent age of luminescence relative to that of untreated cells . The concentration of compound producing 50% of cell proliferation (IC50) was calculated by nonlinear regression analysis of the response-concentration (log) curve, using the Graph-Pad Prism program package (Graph Pad Software; San Diego, CA). Results are expressed as the means of two […] experiments
In general terms: Cellular ATP, detected with luciferase, serves as a proxy for viable cell number.

The test system of assay [4] is SNU368. Put plainly: CellTiter-Glo luminescent cell viability assay. It counts as cell-based. The following applies: 120 h incubation, read-out: Anti-proliferative activity IC50 SNU368.
Text: as §3, §4, §5, §6

Assay [5] has as its system SMMC-7721. Put plainly: CellTiter-Glo luminescent cell viability assay. It counts as cell-based. To be noted: 120 h incubation, read-out: Anti-proliferative activity IC50 SMMC-7721.
Text: as §3, §4, §5, §6

Assay [6] relates to BEL7404. Put plainly: CellTiter-Glo luminescent cell viability assay. It counts as cell-based. To be noted: 120 h incubation, read-out: Anti-proliferative activity IC50 BEL7404.
Text: as §3, §4, §5, §6

For assay [7], the system named is QGY-7703. Put plainly: CellTiter-Glo luminescent cell viability assay. To be noted: 120 h incubation, read-out: Anti-proliferative activity IC50 QGY-7703. It counts as cell-based.
Text: as §3, §4, §5, §6

The test system of assay [8] is MHCC97-L. Put plainly: CellTiter-Glo luminescent cell viability assay. It counts as cell-based. The following applies: 120 h incubation, read-out: Anti-proliferative activity IC50 MHCC97-L.
Text: as §3, §4, §5, §6

PDGFRβ, sequence (P09619 33-1106): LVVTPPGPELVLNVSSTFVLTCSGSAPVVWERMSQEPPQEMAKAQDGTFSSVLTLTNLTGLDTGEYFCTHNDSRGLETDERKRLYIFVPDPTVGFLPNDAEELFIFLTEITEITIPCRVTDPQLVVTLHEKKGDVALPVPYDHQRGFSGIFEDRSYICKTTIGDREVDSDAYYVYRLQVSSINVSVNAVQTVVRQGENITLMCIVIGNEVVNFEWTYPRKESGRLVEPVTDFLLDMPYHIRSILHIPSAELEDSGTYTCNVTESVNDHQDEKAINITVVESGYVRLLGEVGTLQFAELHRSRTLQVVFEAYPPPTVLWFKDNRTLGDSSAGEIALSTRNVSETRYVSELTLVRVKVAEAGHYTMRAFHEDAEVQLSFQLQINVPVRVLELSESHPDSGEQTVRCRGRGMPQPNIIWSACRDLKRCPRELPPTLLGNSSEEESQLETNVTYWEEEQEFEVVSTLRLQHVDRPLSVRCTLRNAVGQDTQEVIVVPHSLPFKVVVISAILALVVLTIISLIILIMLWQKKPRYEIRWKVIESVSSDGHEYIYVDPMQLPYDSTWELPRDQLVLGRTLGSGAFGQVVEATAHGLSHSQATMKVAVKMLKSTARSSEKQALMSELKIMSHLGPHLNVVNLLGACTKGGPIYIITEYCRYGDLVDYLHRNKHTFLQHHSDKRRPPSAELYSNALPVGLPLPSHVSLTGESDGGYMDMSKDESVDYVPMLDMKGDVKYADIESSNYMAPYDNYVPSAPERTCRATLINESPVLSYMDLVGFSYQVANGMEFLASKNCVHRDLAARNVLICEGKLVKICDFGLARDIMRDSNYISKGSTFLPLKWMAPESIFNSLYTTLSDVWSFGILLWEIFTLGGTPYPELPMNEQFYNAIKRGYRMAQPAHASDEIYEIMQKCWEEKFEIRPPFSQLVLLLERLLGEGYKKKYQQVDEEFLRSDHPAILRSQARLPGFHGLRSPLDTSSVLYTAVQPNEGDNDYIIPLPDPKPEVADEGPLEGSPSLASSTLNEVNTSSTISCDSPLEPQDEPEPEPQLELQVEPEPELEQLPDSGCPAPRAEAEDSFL

A word on the IC50: it is the concentration needed to halve the response being measured. Turning to `Cc1ccc(NC(=O)c2ccco2)cc1Oc1nccc(-c2cc3ccccc3o2)n1` [E3], the “Inhibition effect (%) PDGFRα” value in assay [1] is -2.00%. The “Inhibition effect (%) PDGFRβ” value in assay [2] came to 3.83%. In addition, the half-inhibitory concentration (IC50) in assay [3] came out at 125 µM; in assay [4], 1.3 µM; in assay [5], 0.7 µM; in assay [6], 1.2 µM; in assay [7], 0.7 µM; in assay [8], 9.6 µM.

As to `Cc1ccc(NC(=O)c2ccc(Cl)cc2)cc1Oc1nccc(-c2ccccc2)n1` [B6], the “Inhibition effect (%) PDGFRα” value in assay [1] was determined as 12.21%. Besides, the “Inhibition effect (%) PDGFRβ” value in assay [2] worked out at 18.64%. Besides, the IC50 is 7.9 µM in assay [3]; 15 µM in assay [4]; 9.7 µM in assay [5]; 13.4 µM in assay [6]; 15.4 µM in assay [7]; 10.5 µM in assay [8].

`CC(=O)Nc1ccc(C)c(Oc2nccc(-c3cc4ccccc4o3)n2)c1` [E1]: the “Inhibition effect (%) PDGFRα” value in assay [1] is reported as 1.56%. Besides, in assay [2], the “Inhibition effect (%) PDGFRβ” value was found to be 1.82%. Also, the IC50 in assay [3] is 86.8 µM; in assay [4], 8.5 µM; in assay [5], 0.3 µM; in assay [6] it was 10.1 µM; in assay [7], 0.3 µM; in assay [8], 5.7 µM.

Consider `Cc1ccc(C(=O)Nc2ccc(C)c(Oc3nccc(-c4cccnc4)n3)c2)cc1` [A3], for which the “Inhibition effect (%) PDGFRα” value in assay [1] is 45.45%. In assay [2], the “Inhibition effect (%) PDGFRβ” value was 45.50%. Moreover, the IC50 in assay [3] is 21.2 µM; in assay [4] it was 51.4 µM; in assay [5], 25.1 µM; in assay [6], 32.8 µM; in assay [7], 47 µM; in assay [8] it was 22.3 µM.

For `Cc1ccc(NC(=O)c2cccnc2)cc1Oc1nccc(-c2ccccc2)n1` [B11], the “Inhibition effect (%) PDGFRα” value in assay [1] was determined as 32.00%. Further, the “Inhibition effect (%) PDGFRβ” value in assay [2] is reported as 5.08%. The IC50 in assay [3] is 44.2 µM; in assay [4], 18 µM; in assay [5] it was 20.2 µM; in assay [6] it was 21.6 µM; in assay [7] it was 81.1 µM; in assay [8], 53.5 µM.

For `Cc1ccc(NC(=O)Cc2ccccc2)cc1Oc1nccc(-c2cccnc2)n1` [A2], the “Inhibition effect (%) PDGFRβ” value in assay [2] was 40.73%. Also, the IC50 in assay [3] was 39.5 µM; in assay [4] it was 112 µM; in assay [5] it was 84.3 µM; in assay [6] it was 39.3 µM; in assay [7], 59.8 µM; in assay [8], > 200 µM.

As to `Cc1cccc(C(=O)Nc2ccc(C)c(Oc3nccc(-c4ccccc4)n3)c2)c1` [B4], the “Inhibition effect (%) PDGFRα” value in assay [1] is 35.04%. In addition, the “Inhibition effect (%) PDGFRβ” value in assay [2] came out at 24.42%. The half-inhibitory concentration (IC50) in assay [3] was 6.4 µM; in assay [4], 12.9 µM; in assay [5], 6.2 µM; in assay [6], 9.5 µM; in assay [7], 10.2 µM; in assay [8], 7 µM.

Take `CC(=O)Nc1ccc(C)c(Oc2nccc(-c3cc4ccccc4n3C)n2)c1` [F1]: in assay [1], the “Inhibition effect (%) PDGFRα” value was 6.37%. In addition, the “Inhibition effect (%) PDGFRβ” value in assay [2] is 2.32%. Also, the IC50 was determined as 31 µM in assay [3]; 29.3 µM in assay [4]; 34.5 µM in assay [5]; 37.1 µM in assay [6]; 195 µM in assay [7]; 48.4 µM in assay [8].

As to `CC(=O)Nc1ccc(C)c(Oc2nccc(-c3cccc4ccccc34)n2)c1` [C1], in assay [1], the “Inhibition effect (%) PDGFRα” value is listed as 33.27%. Also, in assay [2], the “Inhibition effect (%) PDGFRβ” value is 1.32%. The half-maximal inhibitory concentration (IC50) in assay [3] was 32 µM; in assay [4], 43 µM; in assay [5] it was 21 µM; in assay [6] it was 36.2 µM; in assay [7] it was 91.6 µM; in assay [8] it was 109 µM.

Consider `Cc1ccc(NC(=O)c2ccc(F)cc2)cc1Oc1nccc(-c2cccnc2)n1` [A10], for which the “Inhibition effect (%) PDGFRα” value in assay [1] is 40.63%. In addition, the “Inhibition effect (%) PDGFRβ” value in assay [2] was found to be 30.94%. Further, the IC50 in assay [3] turned out to be 20.1 µM; in assay [4] it was 38.7 µM; in assay [5], 21.1 µM; in assay [6] it was 28.2 µM; in assay [7], 43.4 µM; in assay [8], 35.7 µM.

For the compound `Cc1cccc(C(=O)Nc2ccc(C)c(Oc3nccc(-c4ccco4)n3)c2)c1` [D4], in assay [1], the “Inhibition effect (%) PDGFRα” value was 45.70%. In assay [2], the “Inhibition effect (%) PDGFRβ” value came to 46.00%. Besides, the IC50 in assay [3] stood at 6 µM; in assay [4] it was 23.2 µM; in assay [5] it was 3.7 µM; in assay [6], 4.5 µM; in assay [7], 7.5 µM; in assay [8] it was 3.4 µM.

With `Cc1ccc(NC(=O)c2ccncc2)cc1Oc1nccc(-c2cccnc2)n1` [A12], the “Inhibition effect (%) PDGFRα” value in assay [1] stood at 43.17%. Besides, the “Inhibition effect (%) PDGFRβ” value in assay [2] worked out at 31.94%. Further, the IC50 stood at 130 µM in assay [3]; 287 µM in assay [4]; 113 µM in assay [5]; 134 µM in assay [6]; 170 µM in assay [7]; 281 µM in assay [8].

`Cc1ccc(NC(=O)c2cccnc2)cc1Oc1nccc(-c2cccnc2)n1` [A11]: in assay [1], the “Inhibition effect (%) PDGFRα” value came to 42.91%. For the same compound, the “Inhibition effect (%) PDGFRβ” value in assay [2] is on record as 6.84%. Moreover, the IC50 in assay [3] worked out at 105 µM; in assay [4] it was 94.6 µM; in assay [5], 79.7 µM; in assay [6], 74.2 µM; in assay [7], 252 µM; in assay [8], 89.3 µM.

As for `CCC(=O)Nc1ccc(C)c(Oc2nccc(-c3cc4ccccc4n3C)n2)c1` [F2], the “Inhibition effect (%) PDGFRα” value in assay [1] came to 12.21%. For the same compound, the “Inhibition effect (%) PDGFRβ” value in assay [2] is on record as -4.46%. Moreover, the 50% inhibitory concentration (IC50) in assay [3] came to 33.8 µM; in assay [4], 29.1 µM; in assay [5] it was 27.9 µM; in assay [6], 19 µM; in assay [7], 51.9 µM; in assay [8], 31.8 µM.

Turning to `Cc1ccc(NC(=O)c2cccc([N+](=O)[O-])c2)cc1Oc1nccc(-c2cccnc2)n1` [A9], in assay [1], the “Inhibition effect (%) PDGFRα” value is 23.63%. Further, the “Inhibition effect (%) PDGFRβ” value in assay [2] was determined as 23.41%. Further, the concentration for half-maximal inhibition (IC50) in assay [3] is 28.4 µM; in assay [4], 51.5 µM; in assay [5], 26.8 µM; in assay [6], 23.8 µM; in assay [7] it was 48.4 µM; in assay [8] it was 53.2 µM.

As to `Cc1ccc(NC(=O)c2ccc([N+](=O)[O-])cc2)cc1Oc1nccc(-c2cccnc2)n1` [A8], in assay [2], the “Inhibition effect (%) PDGFRβ” value was found to be 43.24%. The IC50 in assay [3] is 14.3 µM; in assay [4], 25.7 µM; in assay [5], 10.1 µM; in assay [6], 20.1 µM; in assay [7], 24.6 µM; in assay [8], 34.6 µM.

As for `Cc1cccc(C(=O)Nc2ccc(C)c(Oc3nccc(-c4cccnc4)n3)c2)c1` [A4], the “Inhibition effect (%) PDGFRβ” value in assay [2] was determined as 43.74%. For the same compound, the IC50 in assay [3] was 17.5 µM; in assay [4], 54 µM; in assay [5], 17.5 µM; in assay [6] it was 12.2 µM; in assay [7], 39.8 µM; in assay [8] it was 24.5 µM.

For the compound `Cc1ccc(NC(=O)c2cccc(Cl)c2)cc1Oc1nccc(-c2cccnc2)n1` [A7], the “Inhibition effect (%) PDGFRβ” value in assay [2] is recorded as 40.23%. Further, the IC50 worked out at 18.9 µM in assay [3]; 45.9 µM in assay [4]; 27.2 µM in assay [5]; 32.8 µM in assay [6]; 57.8 µM in assay [7]; 51.5 µM in assay [8].

Turning to `Cc1ccc(NC(=O)c2ccoc2)cc1Oc1nccc(-c2cc3ccccc3o2)n1` [E4], the “Inhibition effect (%) PDGFRα” value in assay [1] is listed as 27.18%. Moreover, in assay [2], the “Inhibition effect (%) PDGFRβ” value came to 7.35%. For the same compound, the IC50 in assay [3] came out at 15.8 µM; in assay [4] it was 11.4 µM; in assay [5], 0.4 µM; in assay [6], 5.2 µM.
